Test results reported in US20250000843A1, “LIGNAN-INSPIRED COMPOUNDS, METHODS OF MAKING, AND USING THEREOF” (IOWAIBO, INC., priority 2023, published 2025).

Tested on: MCF7 (human breast cancer cell line)
Assay: MTT toxicity assay in MCF7 breast cancer cells
Type: cell-based
Method: Toxicity of the dibenzyl butyl lactone derivative (3-[(3,4-dimethoxyphenyl)cyclopentyl], 4-[(3-hydroxyphenol)methyl]oxolan-2-one) in breast cancer cells was evaluated using MTT assay. The MTT toxicity test is a colorimetric assay to measure cells' metabolic activity by serving as a substrate of cellular enzymes that reduce the tetrazolium orange dye, MTT (3-(4,5-Dimethylthiazol-2-yl)-2,5-diphenyltetrazolium bromide) to its insoluble, formazan, giving a purple color. The rate of conversion is directly proportional to cells' mitochondrial metabolic activity via NAD (P) H-dependent cellular oxidoreductase enzymes and serves as a surrogate marker of cell viability.
Cultures of MCF7 (human breast cancer cell line) working stock (5 passages) were established under standard culture conditions in Eagle's minimum essential medium (EMEM). EMEM was supplemented with 10% fetal bovine serum (FBS), 2 mM Glutamine and Pen/Strep, and Penicillin 0.01 mg/ml.
Cells previously expanded were seeded in 96 well plates at 1.9×10^5 and 9.6×10^4 cells/plate for 24- and 72-hours treatment respectively. This concentration is known to show the best window for the MTT assay, with better sensitivity and low variability.
5 mg of powdered enterolactone, dibenzyl butyl lactone derivative enantiomer A, and dibenzyl butyl lactone derivative enantiomer B were dissolved in 500 μl of DMSO at room temperature. Eight-point curves, ⅓ dilutions (highest concentration 125 μM), were prepared.
Twenty-four hours following the seeding process, the cells were washed once with phosphate buffered saline (PBS) and treated with the respective compounds in cell culture media. Each condition was tested in triplicates. For positive and negative controls, 8 mM methyl methane sulfonate (MMS) and DMSO 100% were used respectively.
Following compound addition, the plates were incubated for 24 and 72 hours. After the treatment period, cells were washed twice with PBS and media was replaced with MTT reagent at 0.5 mg/ml in Dulbecco's modified Eagle medium (DMEM) without phenol red. The plates were gently shaken and incubated for 4 hours. After the incubation the medium was removed and replaced by DMSO. The plates were gently shaken to solubilize the formazan crystals. Absorbance was measured using an Envision multiplate reader at a wavelength of 570 nm.
Eight serial dilutions were prepared (125.00, 41.67, 13.89, 4.63, 1.54, 0.51, 0.17 and 0.06 µM to evaluate the compounds (in triplicate). MTT results showing cell death values above 20% are considered as having a significant toxic effect.
MTT assay results are shown in Tables 2-7 and expressed as the percentage of cell death after treatment.

O=C1OCC(Cc2ccc3c(c2)OCO3)/C1=C\c1cccc(O)c1 (single isomer, unassigned) [Enantiomer A, 3-[(3,4-dimethoxyphenyl)cyclopentyl], 4-[(3-hydroxyphenol)methyl]oxolan-2-one]
Cell death #1 (%) (MCF7, 24 hours, 0.06 μM): −25.82% | Cell death #2 (%) (MCF7, 24 hours, 0.06 μM): −37.36% | Cell death #3 (%) (MCF7, 24 hours, 0.06 μM): −35.43% | Cell death (%) MEAN (MCF7, 24 hours, 0.06 μM): −32.87% | Cell death #1 (%) (MCF7, 24 hours, 0.17 μM): −27.36% | Cell death #2 (%) (MCF7, 24 hours, 0.17 μM): −44.28% | Cell death #3 (%) (MCF7, 24 hours, 0.17 μM): −55.05% | Cell death (%) MEAN (MCF7, 24 hours, 0.17 μM): −42.23% | Cell death #1 (%) (MCF7, 24 hours, 0.51 μM): −57.74% | Cell death #2 (%) (MCF7, 24 hours, 0.51 μM): −18.51% | Cell death #3 (%) (MCF7, 24 hours, 0.51 μM): −45.82% | Cell death (%) MEAN (MCF7, 24 hours, 0.51 μM): −40.69% | Cell death #1 (%) (MCF7, 24 hours, 1.54 μM): −48.89% | Cell death #2 (%) (MCF7, 24 hours, 1.54 μM): −51.59% | Cell death #3 (%) (MCF7, 24 hours, 1.54 μM): −43.51% | Cell death (%) MEAN (MCF7, 24 hours, 1.54 μM): −48.00% | Cell death #1 (%) (MCF7, 24 hours, 4.63 μM): −58.89% | Cell death #2 (%) (MCF7, 24 hours, 4.63 μM): −57.74% | Cell death #3 (%) (MCF7, 24 hours, 4.63 μM): −34.66% | Cell death (%) MEAN (MCF7, 24 hours, 4.63 μM): −50.43% | Cell death #1 (%) (MCF7, 24 hours, 13.89 μM): −61.20% | Cell death #2 (%) (MCF7, 24 hours, 13.89 μM): −35.05% | Cell death #3 (%) (MCF7, 24 hours, 13.89 μM): −25.05% | Cell death (%) MEAN (MCF7, 24 hours, 13.89 μM): −40.43% | Cell death #1 (%) (MCF7, 24 hours, 41.67 μM): −83.51% | Cell death #2 (%) (MCF7, 24 hours, 41.67 μM): −78.89% | Cell death #3 (%) (MCF7, 24 hours, 41.67 μM): −45.05% | Cell death (%) MEAN (MCF7, 24 hours, 41.67 μM): −69.15% | Cell death #1 (%) (MCF7, 24 hours, 125.00 μM): 98.41% | Cell death #2 (%) (MCF7, 24 hours, 125.00 μM): 95.72% | Cell death #3 (%) (MCF7, 24 hours, 125.00 μM): 100.72% | Cell death (%) MEAN (MCF7, 24 hours, 125.00 μM): 98.29% | Cell death #1 (%) (MCF7, 72 hours, 0.06 μM): −51.17% | Cell death #2 (%) (MCF7, 72 hours, 0.06 μM): −29.40% | Cell death #3 (%) (MCF7, 72 hours, 0.06 μM): −11.64% | Cell death (%) MEAN (MCF7, 72 hours, 0.06 μM): −30.74% | Cell death #1 (%) (MCF7, 72 hours, 0.17 μM): −56.87% | Cell death #2 (%) (MCF7, 72 hours, 0.17 μM): −58.21% | Cell death #3 (%) (MCF7, 72 hours, 0.17 μM): −50.17% | Cell death (%) MEAN (MCF7, 72 hours, 0.17 μM): −55.08% | Cell death #1 (%) (MCF7, 72 hours, 0.51 μM): −79.98% | Cell death #2 (%) (MCF7, 72 hours, 0.51 μM): −51.84% | Cell death #3 (%) (MCF7, 72 hours, 0.51 μM): −72.61% | Cell death (%) MEAN (MCF7, 72 hours, 0.51 μM): −68.15% | Cell death #1 (%) (MCF7, 72 hours, 1.54 μM): −57.87% | Cell death #2 (%) (MCF7, 72 hours, 1.54 μM): −73.62% | Cell death #3 (%) (MCF7, 72 hours, 1.54 μM): −58.88% | Cell death (%) MEAN (MCF7, 72 hours, 1.54 μM): −63.46% | Cell death #1 (%) (MCF7, 72 hours, 4.63 μM): −90.37% | Cell death #2 (%) (MCF7, 72 hours, 4.63 μM): −113.15% | Cell death #3 (%) (MCF7, 72 hours, 4.63 μM): −79.31% | Cell death (%) MEAN (MCF7, 72 hours, 4.63 μM): −94.28% | Cell death #1 (%) (MCF7, 72 hours, 13.89 μM): −43.13% | Cell death #2 (%) (MCF7, 72 hours, 13.89 μM): −52.85% | Cell death #3 (%) (MCF7, 72 hours, 13.89 μM): −46.15% | Cell death (%) MEAN (MCF7, 72 hours, 13.89 μM): −47.38% | Cell death #1 (%) (MCF7, 72 hours, 41.67 μM): 15.49% | Cell death #2 (%) (MCF7, 72 hours, 41.67 μM): 4.10% | Cell death #3 (%) (MCF7, 72 hours, 41.67 μM): 2.76% | Cell death (%) MEAN (MCF7, 72 hours, 41.67 μM): 7.45% | Cell death #1 (%) (MCF7, 72 hours, 125.00 μM): 99.92% | Cell death #2 (%) (MCF7, 72 hours, 125.00 μM): 99.92% | Cell death #3 (%) (MCF7, 72 hours, 125.00 μM): 99.58% | Cell death (%) MEAN (MCF7, 72 hours, 125.00 μM): 99.80% | breast cancer cell death as compared to enterolactone (MCF7, at higher concentrations, 24 hours and 72 hours post-treatment): increased breast cancer cell death as compared to enterolactone
